Test system: G-401 tumor spheroids, viability % test/control
Test: Anticancer human tumor G-401 cell line growth inhibition;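 further: spheroids exposed to compound for 7 days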;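 on viability, T/C: 100% = DMSO vehicle-treated spheroids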
Conditions: spheroids with HUVEC and MSC; for IC50: curve of first compound; for viability, T/C: stronger effect = lower value
Summary of the method: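 Single agents and combinations were tested on spheroids built from tumor cells plus HUVEC and hMSC, at half-log dilutions starting at or near clinical Cmax, else 10 microM; final DMSO 0.25% (v/v).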

Structure (SMILES): Cc1sc2c(c1C)C(c1ccc(Cl)cc1)=NC(CC(=O)Nc1ccc(O)cc1)c1nnc(C)n1-2 (stereo not given) + COc1cc2c(cc1O)CCNC21CSC2c3c(OC(C)=O)c(C)c4c(c3C(COC1=O)N1C(O)C3Cc5cc(C)c(OC)c(O)c5C(C21)N3C)OCO4
- IC50 (second compound 30 pM): 160 nM
- IC50 (second compound 94.9 pM): 115 nM
- IC50 (second compound 0.0003 µM): < 9.49 nM
- IC50 (second compound 0.000949 µM): < 9.49 nM
- IC50 (second compound 0.003 µM): < 9.49 nM
- viability, T/C (second compound 30 pM, first compound 0.00949 µM): 102%
- viability, T/C (second compound 30 pM, first compound 0.03 µM): 83.3%
- viability, T/C (second compound 30 pM, first compound 0.0949 µM): 63.9%
- viability, T/C (second compound 30 pM, first compound 0.3 µM): 34.8%
- viability, T/C (second compound 30 pM, first compound 0.949 µM): 17.8%
- viability, T/C (second compound 30 pM, first compound 3 µM): 8.07%
- viability, T/C (second compound 94.9 pM, first compound 0.00949 µM): 92.8%
- viability, T/C (second compound 94.9 pM, first compound 0.03 µM): 74.7%
- viability, T/C (second compound 94.9 pM, first compound 0.0949 µM): 55.1%
- viability, T/C (second compound 94.9 pM, first compound 0.3 µM): 31.3%
- viability, T/C (second compound 94.9 pM, first compound 0.949 µM): 12%
- viability, T/C (second compound 94.9 pM, first compound 3 µM): 5.01%
- viability, T/C (second compound 0.0003 µM, first compound 0.00949 µM): 35.1%
- viability, T/C (second compound 0.0003 µM, first compound 0.03 µM): 38.7%
- viability, T/C (second compound 0.0003 µM, first compound 0.0949 µM): 27.1%
- viability, T/C (second compound 0.0003 µM, first compound 0.3 µM): 9.01%
- viability, T/C (second compound 0.0003 µM, first compound 0.949 µM): 4.45%
- viability, T/C (second compound 0.0003 µM, first compound 3 µM): 1.34%
- viability, T/C (second compound 0.000949 µM, first compound 0.00949 µM): 19.8%
- viability, T/C (second compound 0.000949 µM, first compound 0.03 µM): 3.94%
- viability, T/C (second compound 0.000949 µM, first compound 0.0949 µM): 19.1%
- viability, T/C (second compound 0.000949 µM, first compound 0.3 µM): 1.51%
- viability, T/C (second compound 0.000949 µM, first compound 0.949 µM): 0.15%
- viability, T/C (second compound 0.000949 µM, first compound 3 µM): 0.16%
- viability, T/C (second compound 0.003 µM, first compound 0.00949 µM): 0.08%
- viability, T/C (second compound 0.003 µM, first compound 0.03 µM): 0.07%
- viability, T/C (second compound 0.003 µM, first compound 0.0949 µM): 0.12%
- viability, T/C (second compound 0.003 µM, first compound 0.3 µM): 0.13%
- viability, T/C (second compound 0.003 µM, first compound 0.949 µM): 0.12%
- viability, T/C (second compound 0.003 µM, first compound 3 µM): 0.24%

Structure (SMILES): CC(C)n1c(=O)n(C)c2cnc3cc(F)c(-c4ccc(OCCCN5CCCCC5)nc4)cc3c21 + Cn1nnc2c(C(N)=O)ncn2c1=O
- IC50 (second compound 1 µM): > 10000 nM
- IC50 (second compound 3.16 µM): > 10000 nM
- IC50 (second compound 10 µM): > 10000 nM
- IC50 (second compound 31.6 µM): > 10000 nM
- IC50 (second compound 100 µM): > 10000 nM
- viability, T/C (second compound 1 µM, first compound 0.0316 µM): 99.9%
- viability, T/C (second compound 1 µM, first compound 0.1 µM): 104%
- viability, T/C (second compound 1 µM, first compound 0.316 µM): 102%
- viability, T/C (second compound 1 µM, first compound 1 µM): 104%
- viability, T/C (second compound 1 µM, first compound 3.16 µM): 103%
- viability, T/C (second compound 1 µM, first compound 10 µM): 76.5%
- viability, T/C (second compound 3.16 µM, first compound 0.0316 µM): 81.6%
- viability, T/C (second compound 3.16 µM, first compound 0.1 µM): 102%
- viability, T/C (second compound 3.16 µM, first compound 0.316 µM): 102%
- viability, T/C (second compound 3.16 µM, first compound 1 µM): 102%
- viability, T/C (second compound 3.16 µM, first compound 3.16 µM): 99.4%
- viability, T/C (second compound 3.16 µM, first compound 10 µM): 83.6%
- viability, T/C (second compound 10 µM, first compound 0.0316 µM): 105%
- viability, T/C (second compound 10 µM, first compound 0.1 µM): 98.9%
- viability, T/C (second compound 10 µM, first compound 0.316 µM): 97.5%
- viability, T/C (second compound 10 µM, first compound 1 µM): 103%
- viability, T/C (second compound 10 µM, first compound 3.16 µM): 101%
- viability, T/C (second compound 10 µM, first compound 10 µM): 66.2%
- viability, T/C (second compound 31.6 µM, first compound 0.0316 µM): 97.8%
- viability, T/C (second compound 31.6 µM, first compound 0.1 µM): 95.4%
- viability, T/C (second compound 31.6 µM, first compound 0.316 µM): 97.7%
- viability, T/C (second compound 31.6 µM, first compound 1 µM): 96.3%
- viability, T/C (second compound 31.6 µM, first compound 3.16 µM): 90.4%
- viability, T/C (second compound 31.6 µM, first compound 10 µM): 62.8%
- viability, T/C (second compound 100 µM, first compound 0.0316 µM): 89.6%
- viability, T/C (second compound 100 µM, first compound 0.1 µM): 92.5%
- viability, T/C (second compound 100 µM, first compound 0.316 µM): 86.6%
- viability, T/C (second compound 100 µM, first compound 1 µM): 88%
- viability, T/C (second compound 100 µM, first compound 3.16 µM): 91.6%
- viability, T/C (second compound 100 µM, first compound 10 µM): 80.1%
